Measurements as given in patent publication US10501487B2, “Antibacterial bismuth complexes” (priority 2015, dated 2019).
Read-outs that look alike come from different tables or passages of the source.

Tests used:
[1] = test system: cos 7 (monkey kidney-derived) cells; assay: MTT-based toxicology assay; assay type: cell-based; conditions: 1 mg/mL, two hours; preliminary results
Procedure: Toxicity testing was performed on the example complexes 1-5 as well as the corresponding ligands against cos 7 eukaryotic cells. Cytotoxicity was assessed using the MTT-based toxicology assay (Sigma-Aldrich; TOX1 assay kit) according to the manufacturer's instructions. Compounds were added to cultured cos 7 (monkey kidney-derived) cells at 1 mg/mL and 0.5 mg/mL for two hours. The MTT reagent was then added and cells were incubated at 37° C. for a further two hours. Following incubation, MTT solubilisation solution was added and mixed. Absorbance results were measured on a Tecan plate reader at 690 nm (background reading) and again at 570 nm. Results were calculated after subtracting the background reading (690 nm) from the values obtained at 570 nm. Cell viability was expressed as a normalised percentage against the blank (medium-only) negative controls. All assays were performed in duplicate.

E. coli = assay: Test 1: colony count after incubation in Lysogeny broth culture; assay type: cell-based; conditions: for inhibition of growth at 2000 µg/mL: Escherichia coli, 2 h, read-out: Reduction in bacterial growth (%) E. coli; for Colony E. coli: Table 1a, 10 mg in 5 mL culture, 2 hours at 37° C., Blank 8.00E+08 (examples), 6.40E+08 (second Blank)
Procedure: (§1) Bacteria were grown in […] Lysogeny broth (LB), shaking at 37° C. to an optical density (OD) of 0.6 (2-3 hr). The culture was divided in […]. One of the cultures was used as a control, containing no organobismuth(III) phosphinate complex. To the other culture, 10 mg of the appropriate organobismuth (III) phosphinate complex was added. The control and organobismuth(III) phosphinate complex-containing cultures were then incubated for 2 hours at 37° C. with shaking. An aliquot was removed from each culture, serially diluted and 50 uL spread on lysogeny broth plates (˜1 in 10^7 gives countable colony numbers for the wild type controls). The plates were incubated overnight at 37° C. The colonies were counted and multiplied by the dilution factor to determine the colony-forming unit (cfu)/ml of the original culture.
(§2) The experiments were also repeated in a lower concentration (0.5 mg/mL) in accordance with the procedure above, which is also shown in Table 2.

S. aureus = assay: as above; assay type: cell-based; conditions: for inhibition of growth at 2000 µg/mL: Staphylococcus aureus, 2 h, read-out: Reduction in bacterial growth (%) S. aureus; for Colony S. aureus: Table 1a, 10 mg in 5 mL culture, 2 hours at 37° C., Blank 8.00E+08 (examples), 4.00E+08 (second Blank)
Procedure: as §1, §2

MRSA = assay: Test 3: complex incorporated in agar, colony growth; assay type: cell-based, Staphylococcus aureus; conditions: 1 mg in agar (20 mL)
Procedure: (§3) The organobismuth (III) phosphinate complex (10 mg or 1 mg) was spread at the bottom of a petri dish. 20 mL of agar was poured on top, before allowing to dry and being stored in a cool dry place. MRSA and VRE were grown in 40 mL BHI with shaking at 37° C. to an OD (optical density) of 0.6 (2-3 hr). The bacteria were then grown for a further 2 hours at 37° C. The bacteria were then plated (at no dilution, 10^3-fold dilution, and 10^4-fold dilution on agar plates containing organobismuth (III) phosphinate and control plates containing no organobismuth (III) phosphinate. The plates were incubated overnight at 37° C. The colonies were counted and multiplied by the dilution factor to determine the colony-forming unit (cfu)/ml of the original culture.

VRE = assay: as above; assay type: cell-based, Enterococcus; conditions: 1 mg in agar (20 mL)
Procedure: as §3

[2] = 2 mg/mL, normalised against the Blank sample
[3] = 0.5 mg/mL, normalised against the Blank sample

SMILES: CP(C)(=O)[O][Bi]([O]P(C)(C)=O)[c]1ccccc1 [Example 5, Phenyl Bismuth bis(dimethylphosphinate)]
- toxicity (in words) [1]: relatively non-toxic

SMILES: O=[N+]([O-])c1cccc(P(=O)(O)c2cccc([N+](=O)[O-])c2)c1 [bis(3-nitrophenyl)phosphinic acid, Bis(3-nitrophenyl)phosphinic acid]
- inhibition of growth at 2000 µg/mL (E. coli; [2]): 90%
- Colony E. coli (E. coli): 8.00E+07 cfu/ml
- inhibition of growth at 2000 µg/mL (S. aureus; [2]): 0%
- Colony S. aureus (S. aureus): 8.00E+08 cfu/ml

SMILES: O=[PH]([O][Bi]([O][PH](=O)c1ccccc1)[c]1ccccc1)c1ccccc1 (stereo not drawn) [Example 4, Phenyl bismuth bis(phenylphosphinate)]
- toxicity (in words) [1]: relatively non-toxic

SMILES: O=P([O][Bi]([O]P(=O)(c1ccccc1)c1ccccc1)[c]1ccccc1)(c1ccccc1)c1ccccc1 [Example 1, Phenyl bismuth bis(diphenylphosphinate)]
- toxicity (in words) [1]: relatively non-toxic

SMILES: O=P(O)(c1ccccc1)c1ccccc1 [diphenylphosphinic acid]
- inhibition of growth at 2000 µg/mL (E. coli; [2]): 70%
- Colony E. coli (E. coli): 2.40E+08 cfu/ml
- inhibition of growth at 2000 µg/mL (S. aureus; [2]): 0%
- Colony S. aureus (S. aureus): 8.00E+08 cfu/ml

SMILES: COc1ccc(P(=O)(O)c2ccc(OC)cc2)cc1 [bis(4-methoxyphenyl)phosphinic acid]
- inhibition of growth at 2000 µg/mL (E. coli; [2]): 90%
- Colony E. coli (E. coli): 8.00E+07 cfu/ml
- inhibition of growth at 2000 µg/mL (S. aureus; [2]): 25%
- Colony S. aureus (S. aureus): 6.00E+08 cfu/ml

SMILES: O=[N+]([O-])c1cccc(P(=O)([O][Bi]([O]P(=O)(c2cccc([N+](=O)[O-])c2)c2cccc([N+](=O)[O-])c2)[c]2ccccc2)c2cccc([N+](=O)[O-])c2)c1 [Example 3, Phenyl bismuth bis(bis(3-nitrophenyl)phosphinate)]
- Reduction in bacterial growth (%) E. coli (E. coli; [3]): 97.00%
- Reduction in bacterial growth (%) E. coli (E. coli; [2]): 100.00%
- Colony E. coli (E. coli): 0.00E+00 cfu/ml
- Reduction in bacterial growth (%) S. aureus (S. aureus; [3]): 90.00%
- Reduction in bacterial growth (%) S. aureus (S. aureus; [2]): 100.00%
- Colony S. aureus (S. aureus): 0.00E+00 cfu/ml
- bacterial growth on treated agar (in words) (MRSA): no bacterial growth was observed
- bacterial growth on treated agar (in words) (VRE): no bacterial growth was observed

SMILES: c1cc[c]([Bi]([c]2ccccc2)[c]2ccccc2)cc1 [triphenylbismuth]
- bacterial growth on treated agar (in words) (MRSA): grew to a comparable number as the blank
- bacterial growth on treated agar (in words) (VRE): grew to a comparable number as the blank

SMILES: O=[PH](O)c1ccccc1 [phenylphosphinic acid]
- inhibition of growth at 2000 µg/mL (E. coli): 60%
- Colony E. coli (E. coli): 3.20E+08 cfu/ml
- inhibition of growth at 2000 µg/mL (S. aureus): 0%
- Colony S. aureus (S. aureus): 8.00E+08 cfu/ml

SMILES: COc1ccc(P(=O)([O][Bi]([O]P(=O)(c2ccc(OC)cc2)c2ccc(OC)cc2)[c]2ccccc2)c2ccc(OC)cc2)cc1 [Example 2, Phenyl bismuth bis(bis(4-methoxyphenyl)phosphinate)]
- Reduction in bacterial growth (%) E. coli (E. coli; [3]): 100.00%
- Reduction in bacterial growth (%) E. coli (E. coli; [2]): 100.00%
- Colony E. coli (E. coli): 1.50E+01 cfu/ml
- Reduction in bacterial growth (%) S. aureus (S. aureus; [3]): 40.00%
- Reduction in bacterial growth (%) S. aureus (S. aureus; [2]): 100.00%
- Colony S. aureus (S. aureus): 0.00E+00 cfu/ml

SMILES: CP(C)(=O)O [dimethyl phosphinic acid]
- inhibition of growth at 2000 µg/mL (E. coli): 78.8%
- Colony E. coli (E. coli): 1.70E+08 cfu/ml
- inhibition of growth at 2000 µg/mL (S. aureus): 25%
- Colony S. aureus (S. aureus): 6.00E+08 cfu/ml
